# The source made the active and inactive calls. The rule behind the calls is not given here.
# How the values were obtained:
# SW-620 [1] = test: Antiproliferative activity against human SW620 cells after 72 hrs by MTT assay; type: functional, cell-based; conditions: SW-620, 72 h
# BJ = test: Antiproliferative activity against human BJ cells after 72 hrs by MTT assay; type: cell-based
# [2] = Drug uptake in human Caki2 cells at 50 uM measured after 5 hrs by Phalloidin CruzFluorTM 488 conjugate/propidium iodide staining based fluorescence microscopic analysis; type: ADME, cell-based; conditions: caki-2, 5 h
# MCF7 = test: Antiproliferative activity against human MCF7 cells after 72 hrs by MTT assay; type: functional, cell-based; conditions: MCF7, 72 h
# [3] = target: T1, DNA topoisomerase 1 (Homo sapiens) (UniProt P11387); test: Inhibition of human topoisomerase1-mediated DNA relaxation assessed as DNA intercalation at 5 to 50 uM using supercoiled pUC19 as substrate pretreated with substrate for 45 mins followed by enzyme addition measured by agarose gel electrophoresis
# T1 sequence (whole entry): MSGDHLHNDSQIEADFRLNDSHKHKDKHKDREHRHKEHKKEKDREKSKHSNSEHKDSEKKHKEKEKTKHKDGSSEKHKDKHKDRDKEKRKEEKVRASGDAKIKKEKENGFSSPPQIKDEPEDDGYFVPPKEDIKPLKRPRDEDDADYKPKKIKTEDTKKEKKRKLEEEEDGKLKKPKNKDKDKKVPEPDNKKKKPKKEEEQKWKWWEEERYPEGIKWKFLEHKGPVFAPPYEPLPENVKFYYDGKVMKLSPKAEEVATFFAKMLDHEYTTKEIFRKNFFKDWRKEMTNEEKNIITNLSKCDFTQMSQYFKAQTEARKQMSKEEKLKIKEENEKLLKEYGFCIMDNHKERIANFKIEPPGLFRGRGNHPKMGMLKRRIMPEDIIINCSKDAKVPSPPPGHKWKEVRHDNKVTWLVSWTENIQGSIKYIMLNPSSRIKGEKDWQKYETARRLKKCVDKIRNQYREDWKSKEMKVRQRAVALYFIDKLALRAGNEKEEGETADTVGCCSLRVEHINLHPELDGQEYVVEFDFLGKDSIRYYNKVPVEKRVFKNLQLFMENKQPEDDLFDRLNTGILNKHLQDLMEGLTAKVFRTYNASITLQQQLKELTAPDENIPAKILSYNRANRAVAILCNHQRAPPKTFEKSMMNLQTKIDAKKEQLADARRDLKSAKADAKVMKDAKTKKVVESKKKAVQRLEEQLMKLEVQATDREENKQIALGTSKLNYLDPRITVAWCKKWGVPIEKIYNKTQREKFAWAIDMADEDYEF
# [4] = target: T1, DNA topoisomerase 1 (Homo sapiens); test: Poison activity at human topoisomerase1 assessed as accumulation of nicked DNA at 20 uM using supercoiled pUC19 as substrate pretreated with substrate for 45 mins followed by enzyme addition measured by agarose gel electrophoresis relative to control
# Calf thymus DNA [5] = test: Binding affinity to calf thymus DNA assessed as change in melting temperature at drug/DNA ratio of 0.25 by spectrophotmetric method; type: nucleic-acid assay; conditions: Bos taurus
# HepG2 = test: Antiproliferative activity against human HepG2 cells after 72 hrs by MTT assay; type: functional, cell-based; conditions: HepG2, 72 h
# Calf thymus DNA [6] = test: Binding affinity to calf thymus DNA at 1 to 50 uM by circular dichroism spectral analysis; type: nucleic-acid assay; conditions: Bos taurus
# CAKI-2 = test: Cytotoxicity against human Caki2 cells after 72 hrs by MTT assay; type: functional, cell-based; conditions: CAKI-2, 72 h
# HeLa [7] = test: Antiproliferative activity against human HeLa cells after 72 hrs by MTT assay; type: functional, cell-based
# [8] = Drug uptake in nucleolus of human Caki2 cells at 50 uM measured after 5 hrs by Phalloidin CruzFluorTM 488 conjugate/propidium iodide staining based fluorescence microscopic analysis; type: ADME, subcellular; conditions: caki-2, 5 h
# Calf thymus DNA [9] = test: Binding affinity to calf thymus DNA assessed as change in melting temperature at drug/DNA ratio of 0.5 by spectrophotmetric method; type: nucleic-acid assay; conditions: Bos taurus
# [10] = Drug uptake in nucleus of human Caki2 cells at 50 uM measured after 5 hrs by Phalloidin CruzFluorTM 488 conjugate/propidium iodide staining based fluorescence microscopic analysis; type: ADME, subcellular; conditions: caki-2, 5 h
# SW-620 [11] = test: Induction of apoptosis in human SW620 cells assessed as activation of caspase-6 at 0.5 uM measured after 48 hrs by colorimetric assay; type: functional, cell-based
# SW-620 [12] = test: Cell cycle arrest in human SW620 cells assessed as accumulation at subG1 phase at 1 uM after 48 hrs by propidium iodide staining based flow cytometric method (reference value: 4.1 to 11.3 %); type: functional
# HeLa [13] = test: Cell cycle arrest in human HeLa cells assessed as accumulation at subG1 phase at 1 uM after 48 hrs by propidium iodide staining based flow cytometric method (reference value: 17 to 20.1 %); type: functional
# HeLa [14] = test: Induction of apoptosis in human HeLa cells assessed as activation of caspase-8 at 0.5 uM after 24 to 48 hrs by colorimetric assay; type: functional, cell-based
# Calf thymus DNA [15] = test: Binding affinity to calf thymus DNA assessed as change in melting temperature at drug/DNA ratio of 1 by spectrophotmetric method; type: nucleic-acid assay; conditions: Bos taurus
# HeLa [16] = test: Cell cycle arrest in human HeLa cells assessed as accumulation at subG1 phase at 0.5 to 1 uM after 24 hrs by propidium iodide staining based flow cytometric method; type: functional
# HeLa [17] = test: Induction of apoptosis in human HeLa cells assessed as phenotypic changes after 24 to 48 hrs by microscopic analysis; type: functional, cell-based
# SW-620 [18] = test: Cell cycle arrest in human SW620 cells assessed as accumulation at subG1 phase at 0.5 uM after 48 hrs by propidium iodide staining based flow cytometric method (reference value: 4.1 to 11.3 %); type: functional
# HeLa [19] = test: Cell cycle arrest in human HeLa cells assessed as accumulation at subG1 phase at 0.5 uM after 48 hrs by propidium iodide staining based flow cytometric method (reference value: 17 to 20.1 %); type: functional
# [20] = target: DNA topoisomerase 2-alpha (Homo sapiens) (UniProt P11388); test: Poison activity at human topoisomerase2 assessed as accumulation of linear DNA at 10 to 50 uM using supercoiled pUC19 as substrate pretreated with substrate for 45 mins followed by […] measured by ethidium bromide staining based agarose gel electrophoresis
# SW-620 [21] = test: Induction of apoptosis in human SW620 cells assessed as phenotypic changes after 24 to 48 hrs by microscopic analysis; type: functional, cell-based
# [22] = Drug uptake in cytoplasm of human Caki2 cells at 50 uM measured after 5 hrs by Phalloidin CruzFluorTM 488 conjugate/propidium iodide staining based fluorescence microscopic analysis; type: ADME, subcellular; conditions: caki-2, 5 h
# SW-620 [23] = test: Induction of apoptosis in human SW620 cells assessed as activation of caspase-8 at 0.5 uM after 24 to 48 hrs by colorimetric assay; type: functional, cell-based
# SW-620 [24] = test: Cell cycle arrest in human SW620 cells assessed as accumulation at subG1 phase at 0.5 to 1 uM after 24 hrs by propidium iodide staining based flow cytometric method; type: functional
# SW-620 [25] = test: Induction of apoptosis in human SW620 cells assessed as activation of caspase-2 at 0.5 uM measured after 48 hrs by colorimetric assay; type: functional, cell-based
# DNA topoisomerase 2-alpha (Homo sapiens), sequence (P11388 whole entry): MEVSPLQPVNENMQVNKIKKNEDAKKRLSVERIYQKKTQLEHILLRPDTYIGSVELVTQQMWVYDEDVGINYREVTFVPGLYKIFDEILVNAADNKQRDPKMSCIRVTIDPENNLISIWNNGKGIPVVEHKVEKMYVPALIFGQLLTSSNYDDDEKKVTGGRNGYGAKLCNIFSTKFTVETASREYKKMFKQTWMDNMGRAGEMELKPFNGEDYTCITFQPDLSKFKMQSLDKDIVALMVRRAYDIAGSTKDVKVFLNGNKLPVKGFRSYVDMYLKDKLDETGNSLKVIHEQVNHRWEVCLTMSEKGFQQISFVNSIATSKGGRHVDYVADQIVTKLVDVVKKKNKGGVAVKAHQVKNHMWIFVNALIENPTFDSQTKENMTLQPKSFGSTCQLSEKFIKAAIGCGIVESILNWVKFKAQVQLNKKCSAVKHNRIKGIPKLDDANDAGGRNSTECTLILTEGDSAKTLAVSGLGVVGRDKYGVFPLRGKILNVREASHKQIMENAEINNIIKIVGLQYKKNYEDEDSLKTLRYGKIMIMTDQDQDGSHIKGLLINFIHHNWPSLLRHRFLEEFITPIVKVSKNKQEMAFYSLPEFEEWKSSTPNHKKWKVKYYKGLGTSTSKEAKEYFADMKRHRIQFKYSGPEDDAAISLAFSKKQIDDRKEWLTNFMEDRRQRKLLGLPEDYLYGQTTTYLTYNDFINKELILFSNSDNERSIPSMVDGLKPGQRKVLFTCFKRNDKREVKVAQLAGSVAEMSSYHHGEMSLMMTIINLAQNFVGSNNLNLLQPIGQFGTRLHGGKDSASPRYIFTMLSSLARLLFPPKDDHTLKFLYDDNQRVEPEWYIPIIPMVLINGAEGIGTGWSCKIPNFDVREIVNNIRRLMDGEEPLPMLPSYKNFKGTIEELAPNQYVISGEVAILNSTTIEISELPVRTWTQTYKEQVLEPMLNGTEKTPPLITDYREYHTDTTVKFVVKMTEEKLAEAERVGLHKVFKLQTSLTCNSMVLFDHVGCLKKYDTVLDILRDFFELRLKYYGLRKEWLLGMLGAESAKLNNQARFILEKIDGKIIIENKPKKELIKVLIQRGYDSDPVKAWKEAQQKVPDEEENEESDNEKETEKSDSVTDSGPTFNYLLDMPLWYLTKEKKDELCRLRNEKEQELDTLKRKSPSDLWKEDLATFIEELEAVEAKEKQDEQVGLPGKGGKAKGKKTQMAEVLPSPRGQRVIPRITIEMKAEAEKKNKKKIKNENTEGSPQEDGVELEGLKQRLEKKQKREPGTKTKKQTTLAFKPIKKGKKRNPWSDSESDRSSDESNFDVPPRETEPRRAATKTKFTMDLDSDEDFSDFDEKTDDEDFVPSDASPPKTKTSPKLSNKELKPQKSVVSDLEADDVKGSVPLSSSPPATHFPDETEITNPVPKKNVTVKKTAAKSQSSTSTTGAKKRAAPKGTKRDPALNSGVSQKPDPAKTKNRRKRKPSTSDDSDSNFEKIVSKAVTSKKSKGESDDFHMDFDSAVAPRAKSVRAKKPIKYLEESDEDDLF
IC50 (SW-620 [1]),Drug uptake [2],IC50 (MCF7),ΔTm (Calf thymus DNA [5]),IC50 (HepG2),Activity (Calf thymus DNA [6]),IC50 (HeLa [7]),ΔTm (Calf thymus DNA [9]),Drug uptake [10],SMILES,IC50 (BJ),IC50 (CAKI-2),other results
35 µM,Active,23.4 µM,9.3 °C,9.01 µM,Active,15.4 µM,18.5 °C,Active,Cl.Cl.c1ccc2c(c1)CN(c1nc3ccc(C4=NCCN4)cc3[nH]1)/C2=N/c1nc2ccc(C3=NCCN3)cc2[nH]1,22.9 µM,80.2 µM,inhibition (qualitative) [3]: Active; fold change (FC) [4]: 1.8; Drug uptake [8]: Active
0.15 µM,Active,0.36 µM,1.2 °C,0.34 µM,Active,0.32 µM,3.2 °C,Active,CC(C)NC(=N)c1ccc2nc(N3Cc4ccccc4C3=O)sc2c1.Cl,0.05 µM,0.75 µM,Activity (SW-620 [11]): Active; Activity (SW-620 [12]): 59.9%; Activity (HeLa [13]): 38.1%; Activity (HeLa [14]): inactive; ΔTm (Calf thymus DNA [15]): 4.4 °C; Activity (HeLa [16]): inactive; Activity (HeLa [17]): Active; Activity (SW-620 [18]): 33.9%; Activity (HeLa [19]): 45.7%; Activity [20]: Active; Activity (SW-620 [21]): Active; Drug uptake [22]: Active; Activity (SW-620 [23]): inactive; Activity (SW-620 [24]): inactive; Activity (SW-620 [25]): Active

# From ChEMBL document CHEMBL4219121, “Synthesis, antitumor activity and DNA binding features of benzothiazolyl and benzimidazolyl substituted isoindolines” (Bioorg Med Chem, 2018)
